According to patent US7638283B2, “Amyloid β protein (globular assembly and uses thereof)” (Northwestern University, priority 1997, dated 2009):

Key:
[1] = tested on: brain slice cultures lacking a functional fyn gene; experiment: Brain slice cultures from mice that lack a functional fyn gene; type: cell-based, mouse; conditions: compared to vehicle controls
Procedure: (§1) An adult mouse is sacrificed by carbon dioxide inhalation, followed by rapid decapitation. The head is emersed in cold, sterile dissection buffer (94 ml Gey's balanced salt solution, pH 7.2, supplemented with 2 mL 0.5M MgCl2, 2 ml 25% glucose, and 2 mL 1.0 M Hepes.), after which the brain is removed and placed on a sterile Sylgard-coated plate. The cerebellum is removed and a mid-line cut is made to separate the cerebral hemispheres. Each hemisphere is sliced separately. The hemisphere is placed with the mid-line cut down and a 30 degree slice from the dorsal side is made to orient the hemisphere. The hemisphere is glued cut side down on the plastic stage of a Campden tissue chopper (previously wiped with ethanol) and emersed in ice cold sterile buffer. Slices of 200 μm thickness are made from a lateral to medial direction, collecting those in which the hippocampus is visible. […] Cell death is measured using the LIVE/DEAD® assay kit (Molecular Probes, Eugene, Oreg.). This a dual-label fluorescence assay in which live cells are detected by the presence of an esterase that cleaves calcein-AM to calcein, resulting in a green fluorescence. Dead cells take up ethidium homodimer, which intercalates with DNA and has a red fluorescence. […] The MetaMorph image analysis system is used to quantify the number and/or area of cells showing green or red fluorescence. […]

fyn kinase = fyn kinase activity in B103 cells; type: cell-based, rat
[2] = tested on: hippocampus, synaptic activity (LTP); experiment: LTP assay in injected animals; type: in vivo, mouse
From the text: Injections of intact animals: Mice are anesthesized with urethane and placed in a sterotaxic apparatus. Body temperature is maintained using a heated water jacket pad. The brain surface is exposed through holes in the skull. Bregma and lambda positions for injection into the middle molecular layer of hippocampus are 2 mm posterior to bregma, 1 mm lateral to the midline, and 1.2-1.5 mm ventral to the brain surface. Amyloid β oligomer injections are by nitrogen puff through ˜[…] diameter glass pipettes. Volumes of 20-50 nL of amyloid β oligomer solution (180 nM of amyloid β) are given over the course of an hour. The animal is allowed to rest for varying time periods before the LTP stimulus is given.
LTP in injected animals: Experiments follow the paradigm established Routtenberg and colleagues for LTP in mice (Namgung, et al., 1995). Perforant path stimulation from the entorhinal cortex is used, with recording from the middle molecular layer and the cell body of the dentate gyrus. […] Some sections are placed on slides subbed with gelatin and others are analyzed using a free-floating protocol. […]
Wave forms are analyzed by machine as described previously (Colley, 1990, J. Neurosci.). […]

[3] = Neurotoxicity of amyloid β fractions and samples (test system not specified); type: cell-based; conditions: supernatant compared with unfractionated amyloid β aggregated under literature conditions
serum starved B103 cells = experiment: Cell morphology by phase microscopy; type: cell-based, rat
Procedure: Cultures are grown to low density (50-60% confluence). To initiate the experiment, the cells are serum starved in F12 media for 1 hour. Cells are then incubated for 3 hours with amyloid β oligomers prepared as described in Example 1, with and without inhibitor compounds added to the cells for […]. After 3 hours, cells are examined for morphological differences or fixed for immunofluorescence labeling. Samples are examined using the MetaMorph Image Analysis system and an MRI video camera (Universal Imaging, Inc.).

primary astrocytes = experiment: Activation of primary astrocyte cultures; type: cell-based
[4] = tested on: hippocampal brain slice cultures; experiment: Brain slice assay (LIVE/DEAD cell death); type: cell-based, mouse
Procedure: as §1

neuronal cell cultures = experiment: Neurotoxicity in neuronal cell cultures; type: cell-based
Procedure: PC12 cells are passaged at 4×10^4 cell/well on a 96-well culture plate and grown for 24 hours in DMEM+10% fetal calf serum+1% S/P/F (streptomycin, penicillin, and fungizone). Plates are treated with 200 μg/mL poly-1-lysine for 2 hours prior to cell plating to enhance cell adhesion. One set of six wells is left untreated and fed with fresh media, while another set of wells is treated with the vehicle control (PBS containing 10% 0.01 N HCl, aged o/n at RT). Positive controls are treated with triton (1%) and Na Azide (0.1%) in normal growth media. Amyloid β oligomers prepared as described in Example 1, with and without inhibitor compounds present are added to the cells for 24 hours. After the 24 hour incubation, MTT (0.5 mg/mL) is added to the cells for 2.5 hours (11 μL of 5 mg/ml stock solubilized in PBS into 100 μL of media). Healthy cells reduce the MTT into a formazan blue colored product. After the incubation with MTT, the media is aspirated and 100 μL of 100% DMSO is added to lyse the cells and dissolve the blue crystals. The plate was incubated for 15 min at RT and read on a plate reader (ELISA) at 550 nm.
HN2 cells are passaged at 4×10^4 cells/well on a 96-well culture plate and grown for 24 hours in DMEM+10% fetal calf serum+1% S/P/F (streptomycin, penicillin, and fungizone). […] The plate is incubated for 15 min at RT and read on a plate reader (ELISA) at 550 nm.

B103 cells = experiment: FACScan assay for binding to intact cells; parameters: species or system rat
Procedure: For flow cytometry, cells are dissociated with 0.1% trypsin and plated at least overnight onto tissue culture plastic at low density. Cells are removed with cold PBS/0.5 mM EDTA, washed three times and resuspended in ice-cold PBS to a final concentration of 500,000 cells/mL. Cells are incubated in cold PBS with amyloid β oligomers prepared as described in Example 1, except that 10% of the amyloid β is an amyloid β 1-42 analog containing biocytin at position 1 replacing aspartate. Oligomers with and without inhibitor compounds present are added to the cells for 24 hours. The cells are washed twice in cold PBS to remove free, unbound amyloid β oligomers and resuspended in a 1:1,000 dilution of avidin conjugated to fluorescein and incubated for one hour at 4° C. with gentle agitation. Cells are analyzed by a Becton-Dickinson Fluorescence Activated Cell Scanner (FACScan). 10,000 or 20,000 events are collected for both forward scatter (size) and fluorescence intensity, and the data are analyzed by Consort 30 software (Becton-Dickinson). An alternative procedure uses amyloid β-specific antibodies and fluorescent secondary antibody instead of avidin, eliminating the need to incorporate 10% of the biotynylated amyloid β analog. FIG. 2 illustrates the ADDL-cell binding FACS analysis, and FIG. 3 illustrates the utility of the FACS assay for identification of ADDL-blocking compounds.

hippocampal neurons = experiment: Neuronal viability in injected animals (brain slices after the LTP experiment); type: in vivo, mouse; conditions: 20 nL injected into hippocampal region
Procedure: After the LTP experiment is performed, animals are allowed to remover for various times and then sacrificed using sodium pentobarbitol asesthetic and perfusion with 4% paraformaldehye. For viability studies, times of 3 hours, 24 hours, 3 days, and 7 days are used. The brain is cryoprotected with 30% sucrose and then sectioned ([…]) with a microtome. Sections are placed on slides subbed with gelatin and stained initially with cresyl violet. Cell loss is measured by counting cell bodies in the dentate gyrus, CA3, CA1, and entorhinal cortex and is correlated with dose and time of exposure of ADDLs.

## ADDLs: amyloid β peptide assembled into non-fibrillar oligomeric structures; soluble globular assemblies of amyloid β 1-42
[1]
  neurotoxicity in brain slice cultures from mice lacking a functional fyn gene: no increased neurotoxicity
Fyn kinase
  fyn kinase activity in B103 cells: activate fyn kinase activity
[2]; 20 nL injected into hippocampal region 60-70 minutes prior to LTP, over the subsequent 2 hours, compared with control animals
  LTP consolidation phase, synaptic activity as cell body spike amplitude: significant, continuing decline in synaptic activity
[2]; 20 nL injected into hippocampal region of adult mouse 60-70 minutes prior to LTP
  LTP stimulation phase: identical with saline control injections
[3]
  neurotoxicity of amyloid β fractions/samples: significantly higher neurotoxicity
Serum starved B103 cells
  morphology of serum starved B103 cells: rapid morphological change
Primary astrocytes
  activation of astrocytes: become activated
  mRNA for IL-1, inducible nitric oxide synthase, apo E, Apo J and α1-antichymotrypsin in astrocytes: become elevated
[4]; supernatant of amyloid β 1-42 incubated in F12 at 4° C., Live/Dead fluorescence assay
  neurotoxicity in brain slice cultures: highly neurotoxic
Neuronal cell cultures
  neurotoxicity in neuronal cell cultures: highly neurotoxic
B103 cells; 10% biotinylated amyloid β 1-42, fluorescent avidin conjugate, FACS
  receptor binding of ADDLs to B103 cells: saturable
Hippocampal neurons
  cell death in brain slices after the LTP experiment: no cell death had occurred

## amyloid β 1-40 [reference compound]
[4]; at 10 μM
  blocking of the neurotoxic effects of ADDLs in the hippocampal brain slice assay: capable of blocking the neurotoxic effects of ADDLs
B103 cells; at 10 μM
  blocking of ADDL binding in the receptor assay: capable of blocking ADDL binding
